Source: patent publication US5891717A, “Methods and compositions for inhibiting hexokinase” (priority 1996, dated 1999)
pKi: −log10 of the molar value.

Assays:
[1] = target: T1, HK-isletGK chimera: N-terminal 455 amino acids of rat hexokinase I fused to rat islet glucokinase, SEQ ID NO:12 (DNA SEQ ID NO:11) (Rattus norvegicus, UniProt P17712); test: Glucose phosphorylating activity in extracts of transiently transfected 293 cells, with and without G6P; format: biochemical; settings: 10 mM G6P, 20 mM glucose, 293 cell extracts
T1 construct: expressed in transfected cells; host or cells: human embryonic kidney 293 cells, crude extract
T1 sequence (P17712 with tags, fused parts or gaps): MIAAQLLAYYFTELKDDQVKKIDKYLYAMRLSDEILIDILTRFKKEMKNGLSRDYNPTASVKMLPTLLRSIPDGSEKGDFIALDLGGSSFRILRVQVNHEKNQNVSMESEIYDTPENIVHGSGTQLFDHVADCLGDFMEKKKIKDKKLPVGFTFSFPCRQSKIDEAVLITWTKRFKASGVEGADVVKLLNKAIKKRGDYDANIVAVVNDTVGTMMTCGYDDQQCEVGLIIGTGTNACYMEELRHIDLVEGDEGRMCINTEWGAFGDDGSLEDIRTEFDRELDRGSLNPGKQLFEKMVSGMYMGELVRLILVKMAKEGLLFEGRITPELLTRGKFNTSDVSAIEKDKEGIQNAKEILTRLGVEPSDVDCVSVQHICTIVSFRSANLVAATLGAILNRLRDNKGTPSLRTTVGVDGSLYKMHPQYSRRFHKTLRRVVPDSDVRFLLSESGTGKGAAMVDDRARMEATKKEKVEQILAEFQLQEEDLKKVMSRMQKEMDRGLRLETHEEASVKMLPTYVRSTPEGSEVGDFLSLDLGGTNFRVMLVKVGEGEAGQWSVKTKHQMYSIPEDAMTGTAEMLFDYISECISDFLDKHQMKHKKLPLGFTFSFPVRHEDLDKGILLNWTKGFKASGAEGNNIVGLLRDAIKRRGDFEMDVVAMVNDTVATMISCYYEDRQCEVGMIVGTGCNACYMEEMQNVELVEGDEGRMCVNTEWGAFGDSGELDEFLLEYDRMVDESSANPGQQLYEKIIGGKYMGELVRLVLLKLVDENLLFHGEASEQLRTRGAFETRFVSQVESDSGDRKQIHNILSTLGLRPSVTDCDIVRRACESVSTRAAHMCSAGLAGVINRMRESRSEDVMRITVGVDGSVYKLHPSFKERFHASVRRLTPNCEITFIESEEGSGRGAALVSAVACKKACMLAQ
From the text: (§1) For transient transfection studies, cDNAs encoding chimeric hexokinase/glucokinase proteins consisting of the N-terminal domain of hexokinase I (amino acids 1-455) linked in frame to either the full length liver isoform of glucokinase (HK-liverGK, SEQ ID NO:8) or the islet isoform of glucokinase (HK-isletGK, SEQ ID NO:11) were cloned into pAC.CMVpLpA.
(§2) Plasmids containing DNA encoding either intact islet glucokinase, hexokinase I or one of the two hexokinase/glucokinase chimeras were introduced into the human embryonic kidney cell line 293, using Ca2 PO4 co-precipitation. After incubation with the plasmid DNA, cells were cultured for an additional 48 hours. Cells were harvested and crude extracts prepared for assay of glucose phosphorylating activity, using a radioisotopic assay that monitors conversion of U-^14 C glucose to U^14 C glucose-6-phosphate.
(§3) Assays were performed at 3 and 20 mM glucose. At the lower glucose concentration, hexokinase activity is maximal while glucokinase activity is very low. […] The assay was also performed in the presence and absence of 10 mM unlabeled glucose-6-phosphate (G6P).

[2] = target: T2, HK-liverGK chimera: N-terminal 455 amino acids of rat hexokinase I fused to rat liver glucokinase, SEQ ID NO:9 (DNA SEQ ID NO:8) (Rattus norvegicus, UniProt P17712); test: as above; format: biochemical; settings: 10 mM G6P, 20 mM glucose, 293 cell extracts
T2 construct: expressed in transfected cells; host or cells: human embryonic kidney 293 cells, crude extract
T2 sequence (P17712 with tags, fused parts or gaps isoform P17712-3): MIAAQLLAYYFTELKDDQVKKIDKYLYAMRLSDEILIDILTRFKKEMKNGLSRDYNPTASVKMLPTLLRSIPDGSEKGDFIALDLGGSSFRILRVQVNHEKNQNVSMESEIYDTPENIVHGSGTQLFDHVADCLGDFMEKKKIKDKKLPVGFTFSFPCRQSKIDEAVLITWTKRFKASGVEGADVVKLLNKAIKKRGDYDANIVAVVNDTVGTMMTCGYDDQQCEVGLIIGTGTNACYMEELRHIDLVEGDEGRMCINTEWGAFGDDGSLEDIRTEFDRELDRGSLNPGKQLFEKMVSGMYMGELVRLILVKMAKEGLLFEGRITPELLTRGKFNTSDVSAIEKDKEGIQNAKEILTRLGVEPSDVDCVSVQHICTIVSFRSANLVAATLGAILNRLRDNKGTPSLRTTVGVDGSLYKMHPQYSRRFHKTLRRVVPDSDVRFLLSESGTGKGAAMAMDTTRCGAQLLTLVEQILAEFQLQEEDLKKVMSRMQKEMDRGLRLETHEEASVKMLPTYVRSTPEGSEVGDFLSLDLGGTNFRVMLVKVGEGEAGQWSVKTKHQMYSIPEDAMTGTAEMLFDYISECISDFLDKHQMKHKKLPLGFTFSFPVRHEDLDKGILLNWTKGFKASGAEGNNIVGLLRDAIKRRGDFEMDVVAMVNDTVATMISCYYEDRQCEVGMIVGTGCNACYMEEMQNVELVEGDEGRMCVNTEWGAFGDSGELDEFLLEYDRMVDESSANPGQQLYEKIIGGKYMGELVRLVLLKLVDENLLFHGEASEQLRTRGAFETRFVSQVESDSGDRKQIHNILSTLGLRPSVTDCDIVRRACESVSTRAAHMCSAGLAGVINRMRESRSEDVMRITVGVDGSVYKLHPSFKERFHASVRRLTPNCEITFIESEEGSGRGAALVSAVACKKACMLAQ
From the text: as §1, §2, §3

[3] = target: low Km hexokinases I, II and III (HKI-III); settings: cited from earlier work
[4] = target: glucokinase (GK, hexokinase IV); settings: cited from earlier work
[5] = target: T3, native (wild type) islet glucokinase, overexpressed (Rattus norvegicus, UniProt P17712); test: Glucose phosphorylating activity in extracts of transiently transfected 293 cells, with and without G6P; format: biochemical; settings: 10 mM G6P, 293 cell extracts
T3 construct: Plasmids containing DNA encoding either intact islet glucokinase, hexokinase I; expressed in transfected cells; host or cells: human embryonic kidney 293 cells, crude extract
T3 sequence (P17712 1-465): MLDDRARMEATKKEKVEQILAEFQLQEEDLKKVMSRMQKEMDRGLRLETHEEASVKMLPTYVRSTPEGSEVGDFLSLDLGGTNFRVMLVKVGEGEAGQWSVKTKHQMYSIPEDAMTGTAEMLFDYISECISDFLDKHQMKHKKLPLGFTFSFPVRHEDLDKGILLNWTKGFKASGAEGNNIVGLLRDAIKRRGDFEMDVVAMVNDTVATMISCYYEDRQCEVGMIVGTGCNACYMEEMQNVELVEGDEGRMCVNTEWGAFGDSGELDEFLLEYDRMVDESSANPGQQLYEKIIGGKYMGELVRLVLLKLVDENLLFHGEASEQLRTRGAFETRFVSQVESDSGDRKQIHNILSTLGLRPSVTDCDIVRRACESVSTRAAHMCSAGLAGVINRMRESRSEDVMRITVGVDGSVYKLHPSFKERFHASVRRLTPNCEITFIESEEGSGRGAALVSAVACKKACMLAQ
Description: as §2, with “glucose-6-phosphate. The extract buffer and assay procedure have previously been described in detail (Kuwajima, et al., 1986; Becker, et al., 1994; each incorporated herein by reference).” for “glucose-6-phosphate.”
Assays were performed at 3 and 20 mM glucose. At the lower glucose concentration, hexokinase activity is maximal while glucokinase activity is very low. At the higher concentration, glucokinase activity is increased to near maximal. The assay was also performed in the presence and absence of 10 mM unlabeled glucose-6-phosphate (G6P). In the presence of G6P, low Km hexokinases are inhibited, but glucokinase is not.

[6] = target: T4, native hexokinase I, overexpressed (Rattus norvegicus, UniProt P05708); settings: typically seen (Becker et al., 1994; 1996); cited from earlier work
T4 sequence (P05708 1-918): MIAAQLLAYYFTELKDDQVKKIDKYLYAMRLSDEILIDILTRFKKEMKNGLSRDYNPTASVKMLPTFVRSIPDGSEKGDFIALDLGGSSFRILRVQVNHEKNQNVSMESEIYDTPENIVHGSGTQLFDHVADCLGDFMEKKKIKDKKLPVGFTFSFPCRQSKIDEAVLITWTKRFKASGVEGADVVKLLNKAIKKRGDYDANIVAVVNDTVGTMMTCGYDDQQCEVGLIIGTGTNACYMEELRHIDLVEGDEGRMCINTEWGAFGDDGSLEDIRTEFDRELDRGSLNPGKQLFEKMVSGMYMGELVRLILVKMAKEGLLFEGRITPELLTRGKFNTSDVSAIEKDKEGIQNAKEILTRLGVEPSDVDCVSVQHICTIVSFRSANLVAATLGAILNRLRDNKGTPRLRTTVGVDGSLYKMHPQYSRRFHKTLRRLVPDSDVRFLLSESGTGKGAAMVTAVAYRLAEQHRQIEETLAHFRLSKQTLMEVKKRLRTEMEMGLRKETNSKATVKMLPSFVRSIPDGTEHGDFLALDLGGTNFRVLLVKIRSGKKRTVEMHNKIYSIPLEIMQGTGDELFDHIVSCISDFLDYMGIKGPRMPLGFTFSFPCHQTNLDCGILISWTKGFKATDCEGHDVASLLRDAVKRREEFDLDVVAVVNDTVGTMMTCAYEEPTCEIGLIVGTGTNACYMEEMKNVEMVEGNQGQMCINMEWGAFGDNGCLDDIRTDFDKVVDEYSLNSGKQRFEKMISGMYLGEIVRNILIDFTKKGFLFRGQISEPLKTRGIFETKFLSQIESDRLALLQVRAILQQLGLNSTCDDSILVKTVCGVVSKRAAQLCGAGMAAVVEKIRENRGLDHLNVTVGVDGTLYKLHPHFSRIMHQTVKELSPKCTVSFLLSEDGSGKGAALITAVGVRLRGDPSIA

[7] = running text (Wilson, 1985), read-out: Km for glucose

Row | SMILES | inhibition of glucose phosphorylating activity by G6P [1] | inhibition of glucose phosphorylating activity by G6P [2] | pKi ([3]; Table 1, HKI-III, read-out: Ki G-6-P) | pKi ([4]; Table 1, GK, read-out: Ki G-6-P) | glucose-6-phosphate concentration required for appreciable inhibition [4] [mM] | effect of glucose-6-phosphate on glucose phosphorylating activity [5] | inhibition of glucose phosphorylating activity by G6P [6] [%] | Km [3, 7] [µM] | Km [4, 7] [mM]
1 | O=P(O)(O)OC[C@H]1OC(O)[C@H](O)[C@@H](O)[C@@H]1O (stereo partly drawn) [glucose-6-phosphate] | approximately 40% | approximately 20% | 3.05 to 3.70 | 1.22 | > 10 | no significant effect | 90 |  | 
2 | OC[C@H]1OC(O)[C@H](O)[C@@H](O)[C@@H]1O (stereo partly drawn) [glucose] |  |  |  |  |  |  |  | 10 to 50 | 6 to 8
